In patent US20070049515A1, “Therapeutic agent for diabetes containing insulin resistance improving agent” (SANKYO COMPANY, LIMITED, priority 2005, published 2007):

Experiments:
Assay type in all cases: in vivo, rat
[1] = test system: Zucker diabetic fatty rats; experiment: Intermittent administration of compound A (Example 2): blood glucose level, red blood cell count, heart weight; settings: for blood glucose level: FIG. 4; for red blood cell count: FIG. 5; for heart weight: FIG. 6
From the text: Zucker diabetic fatty rats (9-week-old, from Charles River Laboratories Japan, Inc.) were used in the experiment. The rats were divided into 3 groups so that body weight, blood glucose level, and red blood cell count may each be uniform among the groups, and each of these groups served as a control group, an intermittent treatment group, or a continuous treatment group (n=4 to 5). Food (FR2, from Funabashi Nojo) and water were given ad libitum during the testing period. A 0.5% carboxymethyl cellulose (CMC) solution only was administered to the control group, and a CMC suspension of compound A was forcibly orally administered to the intermittent treatment group and continuous treatment group according to the regimen described below. For the intermittent treatment group, compound A was repeatedly given in a dose of 1 mg/kg once a day for one week before decreasing the administration thereof to twice a week to administer it for a further two weeks (dosing days: days 0 to 7, 10, 14, and 17). In this respect, the CMC solution was given on the days when compound A was not administered. For the continuous treatment group, 1 mg/kg was repeatedly administered once a day for three weeks. Blood was collected at days 0, 2, 5, 7, 9, 12, 14, 16, 19, and 21 when the start date of dosing was shown as day 0, using a capillary tube treated with heparin, and blood glucose level and blood cell parameters were determined using an autoanalyzer (blood glucose level: Glucoroder GX-T from A&T Corporation, blood cell parameters: KX-21N from Sysmex Corporation)

[2] = test system: Zucker diabetic fatty rats; experiment: Administration of the effective and low doses of compound A in combination (Example 1(a)): blood glucose level, red blood cell count, heart weight; settings: for red blood cell count: FIG. 2; for heart weight: FIG. 3; for blood glucose level (mean) after the decrease to the low dose: oral once a day, from the 14th day on
From the text: Zucker diabetic fatty rats (9-week-old, from Charles River Laboratories Japan, Inc.) were used in the experiment. The rats were divided into 4 groups of 5 individuals each so that body weight, blood glucose level, and red blood cell count may each be uniform among the groups, and each of these groups served as a low-dose treatment group (Ia), a low-dose treatment group (Ib), a continuous treatment group, or a control group. Food (FR2, from Funabashi Nojo) and water were given ad libitum during the testing period. A 0.5% carboxymethyl cellulose (CMC) solution only was administered to the control group, and a CMC suspension of compound A was orally administered to all of the other groups, once a day in doses described below. For the low-dose treatment group (Ia), it was administered at 3 mg/kg for 2 weeks and then at a decreased dose of 0.03 mg/kg for a further 3 weeks. For the low-dose treatment group (Ib), it was administered at 3 mg/kg for 2 weeks and then at a decreased dose of 0.3 mg/kg for a further 3 weeks. For the continuous treatment group, 3 mg/kg was administered for 5 weeks. Blood was collected every 7 days from the start of administration using a capillary tube treated with heparin and EDTA, and blood glucose level and blood cell parameters were determined using an autoanalyzer (blood glucose level: Glucoroder GX-T from A&T Corporation), blood cell parameters: KX-21N from Sysmex Corporation).

[3] = test system: Zucker diabetic fatty rats; experiment: Cycle of one week full coverage followed by four weeks of reduced dosage (Example 1(b)); settings: one week full coverage (3 mg/kg) followed by four weeks of reduced dosage (0.3 mg/kg)
[4] = continuous treatment group: 1 mg/kg orally once a day for three weeks
[5] = intermittent treatment group: 1 mg/kg once a day for one week, then twice a week for two weeks
[6] = continuous treatment group: 3 mg/kg orally once a day for 5 weeks
[7] = low-dose treatment group (Ia): 3 mg/kg for 2 weeks, then 0.03 mg/kg for 3 weeks
[8] = low-dose treatment group (Ib): 3 mg/kg for 2 weeks, then 0.3 mg/kg for 3 weeks

- heart weight [1, 4]: marked increase in heart weight
- red blood cell count [1, 5]: an increase in red blood cell count
- heart weight [2, 6]: marked increase in heart weight
- red blood cell count [2, 7]: recovered nearly to control level
SMILES: COc1ccc2nc(COc3ccc(CC4SC(=O)NC4=O)cc3)n(C)c2c1.Cl (stereo not shown) [compound A, 5-[4-(6-methoxy-1-methyl-1H-benzimidazol-2-ylmethoxy)benzyl]thiazolidin-2,4-dione hydrochloride]
- blood glucose level [1, 4]: lowered to a normal range
- red blood cell count [1, 4]: hemodilution (a decrease in red blood cell count)
- blood glucose level [1, 5]: nearly the same level as that in the continuous treatment group
- heart weight [1, 5]: decreased in value compared to that in the continuous treatment group
- blood glucose level ([2]; continuous treatment group: 3 mg/kg orally once a day for 5 weeks, FIG. 1): lowered to a normal value
- red blood cell count [2, 6]: hemodilution (a decrease in red blood count)
- blood glucose level (mean) after the decrease to the low dose ([2]; low-dose treatment group (Ia): 3 mg/kg for 2 weeks, then 0.03 mg/kg for 3 weeks, FIG. 1): ≤ 300 mg/dL
- heart weight [2, 7]: clearly decreased values compared to that in the continuous treatment group
- blood glucose level (mean) after the decrease to the low dose ([2]; low-dose treatment group (Ib): 3 mg/kg for 2 weeks, then 0.3 mg/kg for 3 weeks, FIG. 1): ≤ 300 mg/dL
- red blood cell count [2, 8]: rapidly recovered in dose-dependent manner
- heart weight [2, 8]: clearly decreased values compared to that in the continuous treatment group
- results (blood glucose level, red blood cell count, heart weight) compared with Example 1(a) [3]: Almost the same results to those described above
